Measurements taken from patent publication US12404345B2, “Humanized antibodies against iRHOM2” (SCIRHOM GMBH, priority 2021, dated 2025).

Tested on: LPS-induced release of endogenous TNFα from human PBMCs from healthy donors
Experiment: ELISA-based TNFα release assay, LPS-induced, PBMCs from healthy donors
Assay type: cell-based
Details: PBMC, Batimastat 10 μM, LPS 0.01 ng/ml, 2 hours
Description: In the following study, ELISA-based TNF& release assays were performed to analyze the inhibitory effects of the antibodies of the invention on LPS-induced release of endogenous TNF& from primary human material obtained from healthy donors using peripheral blood mononuclear cells (PBMCs).
In brief, on day 1, Nunc black MaxiSorp® 96-well plates (Thermo Fisher Scientific, USA) were coated overnight with 100 μl per well of mouse anti-human TNFα capture antibody (provided as part of the DuoSet ELISA kit) at 4 μg/ml TBS at 4° C. On day 2, the capture antibody solution was removed and MaxiSorp® plates were blocked with 300 μl per well of TBS, 1% BSA at room temperature for 3 hours. […] Using an infinite M1000 (Tecan Group, Switzerland) microplate reader, the fluorescence of each well was collected at an excitation wavelength of 435 nm and an emission wavelength of 555 nm.

Work on `CNC(=O)[C@H](Cc1ccccc1)NC(=O)[C@H](CC(C)C)[C@H](CSc1cccs1)C(=O)NO` [Batimastat] yielded an inhibition at 10 µM of 98.9%.
